Data taken from ChEMBL document CHEMBL6127100, “Plant based steroidal and triterpenoid sapogenins: Chemistry on diosgenin and biological aspects” (Eur J Med Chem, 2024).

How the values were obtained:
HuCC-A1 = test: Cytotoxicity against human HuCC-A1 cells assessed as reduction in cell growth incubated for 3 days by micro-titer plate reader analysis; format: functional, cell-based; conditions: HuCC-A1, 72 h
MDA-MB-231 [1] = test: Cytotoxicity against human MDA-MB-231 cells assessed as reduction in cell growth incubated for 48 hrs by MTT assay; format: functional, cell-based; conditions: MDA-MB-231, 48 h
HeLa [2] = test: Cytotoxicity against human HeLa cells assessed as reduction in cell growth incubated for 48 hrs by MTT assay; format: functional, cell-based
KB = test: Cytotoxicity against human KB cells assessed as reduction in cell growth incubated for 3 days by micro-titer plate reader analysis; format: functional, cell-based; conditions: 72 h
HepG2 [3] = test: Cytotoxicity against human HepG2 cells assessed as reduction in cell viability incubated for 24 hrs by MTT assay; format: functional, cell-based; conditions: HepG2, 24 h
HeLa [4] = test: Antiproliferative activity against human HeLa cells assessed as reduction in cell growth after 48 hrs by MTT assay; format: functional, cell-based
Ca-Ski [5] = test: Antiproliferative activity against human Ca-Ski cells assessed as reduction in cell growth after 48 hrs by MTT assay; format: functional, cell-based
DU-145 = test: Cytotoxicity against human DU-145 cells; format: functional, cell-based
BT-474 = test: Cytotoxicity against human BT-474 cells; format: functional, cell-based
MDA-MB-231 [6] = test: Cytotoxicity against human MDA-MB-231 cells; format: functional, cell-based
T98G = test: Antiproliferative activity against human T98G cells assessed as inhibition of cell growth incubated for 72 hrs by celltiter-glo assay; format: functional, cell-based
CCRF-CEM = test: Cytotoxicity against human CCRF-CEM cells; format: functional, cell-based
U-937 [7] = test: Cytotoxicity against human U-937 cells; format: functional, cell-based
Ca-Ski [8] = test: Cytotoxicity against human Ca-Ski cells; format: functional, cell-based
HeLa [9] = test: Cytotoxicity against human HeLa cells; format: functional, cell-based
HeLa [10] = test: Antiproliferative activity against human HeLa cells assessed as reduction in cell viability incubated for 24 hrs by MTT assay; format: functional, cell-based
HepG2 [11] = test: Antiproliferative activity against human HepG2 cells assessed as reduction in cell viability incubated for 24 hrs ny MTT assay; format: functional, cell-based; conditions: HepG2, 24 h
U-937 [12] = test: Antiproliferative activity against human U-937 cells assessed as inhibition of cell growth incubated for 72 hrs by cell-titer glo assay; format: functional, cell-based; conditions: U-937, 72 h
RAW264.7 [13] = test: Anti-inflammatory activity in mouse RAW264.7 cells assessed as inhibition of LPS-induced TNFalpha production preincubated for 1 hr followed by LPS addition and measured after 24 hrs by ELISA; format: functional; set-up: scale not given: the % may be the effect or the level left; conditions: time 25 hrs
RAW264.7 [14] = test: Antiinflammatory activity in LPS-induced mouse RAW264.7 cells assessed as inhibition of IL-6 production pretreated for 1 hr followed by LPS stimulation and measured after 3 hrs by ELISA; format: functional; set-up: scale not given: the % may be the effect or the level left; conditions: time 4 hrs
HepG2 [15] = test: Antiproliferative activity against human HepG2 cells assessed as reduction in cell viability incubated for 48 hrs by MTT assay; format: functional, cell-based; conditions: HepG2, 48 h

C[C@@H]1CC[C@@]2(OC1)O[C@H]1C[C@H]3[C@@H]4CC=C5C[C@@H](O[C@@H]6O[C@H](CO)[C@@H](O[C@@H]7O[C@@H](C)[C@H](O[C@@H]8O[C@@H](C)[C@H](O)[C@@H](O)[C@H]8O)[C@@H](O)[C@H]7O)[C@H](O)[C@H]6O[C@@H]6O[C@@H](C)[C@H](O)[C@@H](O)[C@H]6O)CC[C@]5(C)[C@H]4CC[C@]3(C)[C@H]1[C@@H]2C [PENNOGENIN RAHAMNOSYL CHACOTRIOSIDE]
IC50 (HuCC-A1): 3 µM | IC50 (MDA-MB-231 [1]): 3.1 µM | IC50 (HeLa [2]): 3 µM | IC50 (KB): 6.2 µM | IC50 (HepG2 [3]): 6.33 µM

C[C@@H]1CC[C@@]2(OC1)O[C@H]1C[C@H]3[C@@H]4CC=C5C[C@@H](O)CC[C@]5(C)[C@H]4CC[C@]3(C)[C@H]1[C@@H]2C [DISOGENIN]
IC50 (HeLa [4]): 31.4 µM | IC50 (Ca-Ski [5]): 80 µM

C[C@@H]1CC[C@@]2(OC1)O[C@H]1C[C@H]3[C@@H]4CC(n5cc(-c6ccc(F)cc6)nn5)C5(O)C[C@@H](O)CC[C@]5(C)[C@H]4CC[C@]3(C)[C@H]1[C@@H]2C (some centres undefined)
IC50 (DU-145): 10.1 µM | IC50 (BT-474): 3.85 µM | IC50 (MDA-MB-231 [6]): 7.08 µM | IC50 (T98G): 8.87 µM | IC50 (CCRF-CEM): 5.44 µM | IC50 (U-937 [7]): 7.07 µM

C[C@@H]1CC[C@@]2(OC1)O[C@H]1C[C@H]3[C@@H]4C/C(=N\O)C5=C/C(=N/O)CC[C@]5(C)[C@H]4CC[C@]3(C)[C@H]1[C@@H]2C
IC50 (Ca-Ski [8]): 22 µM | IC50 (HeLa [9]): 19 µM

C[C@H](CC[C@H]1O[C@H]2C[C@H]3[C@@H]4CC=C5C[C@@H](O[Si](C)(C)C(C)(C)C)CC[C@]5(C)[C@H]4CC[C@]3(C)[C@H]2[C@@H]1C)COC1=C(Cl)C(=O)c2ccccc2C1=O
IC50 (HeLa [10]): 17.4 µM | IC50 (HepG2 [11]): 5.81 µM

C[C@H](CC[C@H]1O[C@H]2C[C@H]3[C@@H]4CC=C5C[C@@H](O[Si](C)(C)C(C)(C)C)CC[C@]5(C)[C@H]4CC[C@]3(C)[C@H]2[C@@H]1C)COC1=C(Cl)C(=O)c2ncccc2C1=O
IC50 (HepG2 [11]): 19.7 µM

COc1ccc(-c2cn(C3C[C@H]4[C@@H]5C[C@@H]6O[C@]7(CC[C@@H](C)CO7)[C@@H](C)[C@@H]6[C@@]5(C)CC[C@@H]4[C@@]4(C)CC[C@H](O)CC34O)nn2)cc1 (some centres undefined)
IC50 (DU-145): 19.8 µM | IC50 (BT-474): 4.3 µM | IC50 (U-937 [12]): 5.41 µM | IC50 (MDA-MB-231 [6]): 5.78 µM | IC50 (T98G): 11.4 µM

C[C@H](CC[C@H]1O[C@H]2C[C@H]3[C@@H]4CC=C5C[C@@H](O)CC[C@]5(C)[C@H]4CC[C@]3(C)[C@H]2[C@@H]1C)COC1=C(Cl)C(=O)c2ccccc2C1=O
IC50 (HeLa [10]): 14.1 µM | IC50 (HepG2 [11]): 1.24 µM

C[C@H]1CO[C@@]2(O[C@H]3C[C@H]4[C@@H]5/C(=N/CCCCC(=O)O)C=C6C[C@@H](O)CC[C@]6(C)[C@H]5CC[C@]4(C)[C@H]3[C@@H]2C)/C(=N/O)C1
Activity (RAW264.7 [13]): 47.7% | Activity (RAW264.7 [14]): 23.3%

C[C@@H]1CC[C@@]2(OC1)O[C@H]1C[C@H]3[C@@H]4CC=C5C[C@@H](O[C@@H]6O[C@H](CO)[C@@H](O[C@@H]7O[C@@H](CO)[C@H](O)[C@H]7O)[C@H](O)[C@H]6O[C@@H]6O[C@@H](C)[C@H](O)[C@@H](O)[C@H]6O)CC[C@]5(C)[C@H]4CC[C@]3(C)[C@H]1[C@@H]2C
IC50 (HepG2 [3]): 12.2 µM

C[C@@H]1CC[C@@]2(OC1)O[C@H]1C[C@H]3[C@@H]4CC=C5C[C@@H](O[C@@H]6O[C@H](CO)[C@@H](O[C@@H]7O[C@@H](C)[C@H](O)[C@@H](O)[C@H]7O)[C@H](O)[C@H]6O)CC[C@]5(C)[C@H]4CC[C@]3(C)[C@H]1[C@@H]2C
IC50 (HeLa [4]): 45.1 µM | IC50 (Ca-Ski [5]): 80 µM

Cc1ccc2c(c1)C(=O)C(Cl)=C(OC[C@H](C)CC[C@H]1O[C@H]3C[C@H]4[C@@H]5CC=C6C[C@@H](O[Si](C)(C)C(C)(C)C)CC[C@]6(C)[C@H]5CC[C@]4(C)[C@H]3[C@@H]1C)C2=O
IC50 (HeLa [10]): 17.9 µM | IC50 (HepG2 [11]): 10.9 µM

C[C@@H]1CC[C@@]2(OC1)O[C@H]1C[C@H]3[C@@H]4CC=C5C[C@@H](O[C@@H]6O[C@H](CO)[C@@H](O)[C@H](O)[C@H]6O)CC[C@]5(C)[C@H]4CC[C@]3(C)[C@H]1[C@@H]2C [DISOGLUSIDE]
IC50 (HeLa [4]): 39.1 µM | IC50 (Ca-Ski [5]): 41 µM

C[C@@H]1CC[C@@]2(OC1)O[C@H]1C[C@H]3[C@@H]4CC=C5C[C@@H](O[C@@H]6O[C@H](CO)[C@@H](O)[C@H](O)[C@H]6O[C@@H]6O[C@@H](C)[C@H](O)[C@@H](O)[C@H]6O)CC[C@]5(C)[C@H]4CC[C@]3(C)[C@H]1[C@@H]2C [OPHIOPOGONIN C]
IC50 (HuCC-A1): 5.8 µM | IC50 (MDA-MB-231 [1]): 3.5 µM | IC50 (HeLa [2]): 3.7 µM | IC50 (KB): 4.2 µM | IC50 (HepG2 [3]): 2.92 µM

C[C@@H]1CC[C@@]2(OC1)O[C@H]1C[C@H]3[C@@H]4CC=C5C[C@@H](O[C@@H]6O[C@H](CO)[C@@H](O[C@@H]7O[C@@H](C)[C@H](O[C@@H]8O[C@@H](C)[C@H](O[C@@H]9O[C@@H](C)[C@H](O[C@@H]%10O[C@@H](C)[C@H](O)[C@@H](O)[C@H]%10O)[C@@H](O)[C@H]9O)[C@@H](O)[C@H]8O)[C@@H](O)[C@H]7O)[C@H](O)[C@H]6O[C@@H]6O[C@@H](C)[C@H](O)[C@@H](O)[C@H]6O)CC[C@]5(C)[C@H]4CC[C@]3(C)[C@H]1[C@@H]2C
IC50 (HepG2 [3]): 13.4 µM

C[C@@H]1CC[C@@]2(OC1)O[C@H]1C[C@H]3[C@@H]4CC(n5cc(-c6ccccc6)nn5)C5(O)C[C@@H](O)CC[C@]5(C)[C@H]4CC[C@]3(C)[C@H]1[C@@H]2C (some centres undefined)
IC50 (DU-145): 7.9 µM | IC50 (BT-474): 13.2 µM | IC50 (U-937 [12]): 8.22 µM | IC50 (MDA-MB-231 [6]): 3.32 µM | IC50 (CCRF-CEM): 3.9 µM | IC50 (U-937 [7]): 7.9 µM

CC(=O)O[C@@H]1C=C2CC[C@H]3[C@@H]4C[C@@H]5O[C@@]6(OC[C@H](C)CC6/C(C)=N\O)[C@@H](C)[C@@H]5[C@@]4(C)CC[C@@H]3[C@@]2(C)CC1 (some centres undefined)
IC50 (Ca-Ski [8]): 5.4 µM | IC50 (HeLa [9]): 5.6 µM

C[C@@H]1CC[C@@]2(OC1)O[C@H]1C[C@H]3[C@@H]4CC=C5C[C@@H](OC(=O)[C@@H](N)CCCNC(=N)N)CC[C@]5(C)[C@H]4CC[C@]3(C)[C@H]1[C@@H]2C
IC50 (HepG2 [15]): 19 µM

C[C@@H]1CC[C@@]2(OC1)O[C@H]1C[C@H]3[C@@H]4CC=C5C[C@@H](O[C@@H]6O[C@H](CO)[C@@H](O[C@@H]7O[C@@H](C)[C@H](O)[C@@H](O)[C@H]7O)[C@H](O)[C@H]6O[C@@H]6O[C@@H](C)[C@H](O)[C@@H](O)[C@H]6O)CC[C@]5(C)[C@H]4CC[C@]3(C)[C@H]1[C@@H]2C [DIOSCIN]
IC50 (HuCC-A1): 8.4 µM | IC50 (HeLa [4]): 2 µM | IC50 (MDA-MB-231 [1]): 1.7 µM | IC50 (HeLa [2]): 3.6 µM | IC50 (KB): 6.2 µM | IC50 (Ca-Ski [5]): 2 µM | IC50 (HepG2 [3]): 3.09 µM

COc1cc(-c2cn(C3C[C@H]4[C@@H]5C[C@@H]6O[C@]7(CC[C@@H](C)CO7)[C@@H](C)[C@@H]6[C@@]5(C)CC[C@@H]4[C@@]4(C)CC[C@H](O)CC34O)nn2)cc(OC)c1OC (some centres undefined)
IC50 (MDA-MB-231 [6]): 16.1 µM | IC50 (CCRF-CEM): 6.26 µM | IC50 (U-937 [7]): 5.45 µM

COc1cccc(COc2ccc(-c3cn(C4C[C@H]5[C@@H]6C[C@@H]7O[C@]8(CC[C@@H](C)CO8)[C@@H](C)[C@@H]7[C@@]6(C)CC[C@@H]5[C@@]5(C)CC[C@H](O)CC45O)nn3)cc2)c1 (some centres undefined)
IC50 (DU-145): 10.5 µM | IC50 (T98G): 7.51 µM | IC50 (CCRF-CEM): 5.73 µM

CC(=O)O[C@H]1CC[C@@]2(C)C(=CC[C@H]3[C@@H]4C[C@@H]5O[C@H](CC[C@@H](C)COC6=C(Cl)C(=O)c7ccccc7C6=O)[C@@H](C)[C@@H]5[C@@]4(C)CC[C@@H]32)C1
IC50 (HepG2 [11]): 13.5 µM

C[C@@H]1CC[C@@]2(OC1)O[C@H]1C[C@H]3[C@@H]4CC(n5cc(-c6ccccn6)nn5)C5(O)C[C@@H](O)CC[C@]5(C)[C@H]4CC[C@]3(C)[C@H]1[C@@H]2C (some centres undefined)
IC50 (U-937 [7]): 15.2 µM
